{"source": "patent US20220175768A1", "about": "“FGFR TYROSINE KINASE INHIBITORS FOR THE TREATMENT OF UROTHELIAL CARCINOMA” (Janssen Pharmaceutica NV, priority 2019, published 2022)", "key": {"[1]": {"settings": "6 mg continuous, regimen 2 (n = 78)"}, "[2]": {"settings": "8 mg continuous, Regimen 3 (n = 99)"}, "[3]": {"settings": "8 mg continuous, selected regimen 3 (n = 99)"}}, "experimental": "Study treatment was administered on 28-day cycles. Prior to interim analysis 1, there were 2 treatment regimens. Patients were randomized 1:1 to 28-day cycles to the following 2 regimens until a regimen was selected for further study: Regimen 1 (10 mg once daily intermittent (7 days on/7 days); Regimen 2 (6 mg once daily continuous). Randomization was stratified according to performance status (0 to 1 vs. 2), hemoglobin value (<10 vs. ≥10 g per dl), FGFR alteration type (mutation vs. fusion), prior treatment status (chemotherapy-resistant vs. chemotherapy naïve), and disease distribution (presence or absence of visceral [liver, lung, bone] metastases). Starting dose selection was based on phase 1 efficacy and tolerability.\nThus, after interim analysis, this became a single-arm study. […] Treatment continued until disease progression or unacceptable adverse event(s) per investigator.\nAll objective responses required confirmation by an additional investigator assessment within 4 to 6 weeks of first assessment. Disease evaluations for regimen 3 were also performed by an independent radiographic review committee. […] Safety was evaluated based on clinical laboratory tests, physical exams, electrocardiograms, and ophthalmology examinations. Adverse events and abnormalities were assessed by investigator and graded per NCI CTCAE v.4.0\nProphylactic measures were taken to minimize risk of common adverse events related to FGFR inhibition. To reduce risk of hyperphosphatemia, a low-phosphate diet was recommended for all patients (600 to 800 mg of dietary phosphate intake per day). To reduce the risk of skin effects, the application of alcohol-free emollient moisturizing cream and avoidance of unnecessary exposure to sunlight, soap, perfumed products, and hot baths was recommended. Patients were asked to keep their fingers and toes clean and nails trimmed to reduce risk of nail effects.\nAdditional ophthalmology examinations were performed if clinically indicated.", "data": [{"smiles": "COc1cc(OC)cc(N(CCNC(C)C)c2ccc3ncc(-c4cnn(C)c4)nc3c2)c1", "note": "[erdafitinib, N-(3,5-dimethoxy-phenyl)-N′-(1-methylethyl)-N-[3-(1-methyl-1H-pyrazol-4-yl)quinoxalin-6-yl]ethane-1,2-diamine]", "values": [{"measurement": "Treatment-related adverse event: Asthenia, Any grade", "setting": "[1]", "result": "11 (14) no. (%)"}, {"measurement": "Treatment-related adverse event: Asthenia, Grade 1", "setting": "[1]", "result": "3 (4) no. (%)"}, {"measurement": "Treatment-related adverse event: Asthenia, Grade 2", "setting": "[1]", "result": "4 (5) no. (%)"}, {"measurement": "Treatment-related adverse event: Asthenia, Grade ≥3", "setting": "[1]", "result": "4 (5) no. (%)"}, {"measurement": "Treatment-related adverse event: Conjunctivitis, Any grade", "setting": "[1]", "result": "2 (3) no. (%)"}, {"measurement": "Treatment-related adverse event: Conjunctivitis, Grade 1", "setting": "[1]", "result": "2 (3) no. (%)"}, {"measurement": "Treatment-related adverse event: Conjunctivitis, Grade 2", "setting": "[1]", "result": "0 no. (%)"}, {"measurement": "Treatment-related adverse event: Conjunctivitis, Grade ≥3", "setting": "[1]", "result": "0 no. (%)"}, {"measurement": "Treatment-related adverse event: Decreased appetite, Any grade", "setting": "[1]", "result": "18 (23) no. (%)"}, {"measurement": "Treatment-related adverse event: Decreased appetite, Grade 1", "setting": "[1]", "result": "7 (9) no. (%)"}, {"measurement": "Treatment-related adverse event: Decreased appetite, Grade 2", "setting": "[1]", "result": "9 (12) no. (%)"}, {"measurement": "Treatment-related adverse event: Decreased appetite, Grade ≥3", "setting": "[1]", "result": "2 (3) no. (%)"}, {"measurement": "Treatment-related adverse event: Diarrhea, Any grade", "setting": "[1]", "result": "29 (37) no. (%)"}, {"measurement": "Treatment-related adverse event: Diarrhea, Grade 1", "setting": "[1]", "result": "16 (21) no. (%)"}, {"measurement": "Treatment-related adverse event: Diarrhea, Grade 2", "setting": "[1]", "result": "13 (17) no. (%)"}, {"measurement": "Treatment-related adverse event: Diarrhea, Grade ≥3", "setting": "[1]", "result": "0 no. (%)"}, {"measurement": "Treatment-related adverse event: Dry mouth, Any grade", "setting": "[1]", "result": "31 (40) no. (%)"}, {"measurement": "Treatment-related adverse event: Dry mouth, Grade 1", "setting": "[1]", "result": "23 (30) no. (%)"}, {"measurement": "Treatment-related adverse event: Dry mouth, Grade 2", "setting": "[1]", "result": "6 (8) no. (%)"}, {"measurement": "Treatment-related adverse event: Dry mouth, Grade ≥3", "setting": "[1]", "result": "2 (3) no. (%)"}, {"measurement": "Treatment-related adverse event: Dry skin, Any grade", "setting": "[1]", "result": "16 (21) no. (%)"}, {"measurement": "Treatment-related adverse event: Dry skin, Grade 1", "setting": "[1]", "result": "8 (10) no. (%)"}, {"measurement": "Treatment-related adverse event: Dry skin, Grade 2", "setting": "[1]", "result": "8 (10) no. (%)"}, {"measurement": "Treatment-related adverse event: Dry skin, Grade ≥3", "setting": "[1]", "result": "0 no. (%)"}, {"measurement": "Treatment-related adverse event: Dysgeusia, Any grade", "setting": "[1]", "result": "10 (13) no. (%)"}, {"measurement": "Treatment-related adverse event: Dysgeusia, Grade 1", "setting": "[1]", "result": "6 (8) no. (%)"}, {"measurement": "Treatment-related adverse event: Dysgeusia, Grade 2", "setting": "[1]", "result": "4 (5) no. (%)"}, {"measurement": "Treatment-related adverse event: Dysgeusia, Grade ≥3", "setting": "[1]", "result": "0 no. (%)"}, {"measurement": "Treatment-related adverse event: Fatigue, Any grade", "setting": "[1]", "result": "12 (15) no. (%)"}, {"measurement": "Treatment-related adverse event: Fatigue, Grade 1", "setting": "[1]", "result": "5 (6) no. (%)"}, {"measurement": "Treatment-related adverse event: Fatigue, Grade 2", "setting": "[1]", "result": "6 (8) no. (%)"}, {"measurement": "Treatment-related adverse event: Fatigue, Grade ≥3", "setting": "[1]", "result": "1 (1) no. (%)"}, {"measurement": "Treatment-related adverse event: Hand-foot syndrome, Any grade", "setting": "[1]", "result": "12 (15) no. (%)"}, {"measurement": "Treatment-related adverse event: Hand-foot syndrome, Grade 1", "setting": "[1]", "result": "4 (5) no. (%)"}, {"measurement": "Treatment-related adverse event: Hand-foot syndrome, Grade 2", "setting": "[1]", "result": "8 (10) no. (%)"}, {"measurement": "Treatment-related adverse event: Hand-foot syndrome, Grade ≥3", "setting": "[1]", "result": "0 no. (%)"}, {"measurement": "Treatment-related adverse event: Hyperphosphatemia, Any grade", "setting": "[1]", "result": "49 (63) no. (%)"}, {"measurement": "Treatment-related adverse event: Hyperphosphatemia, Grade 1", "setting": "[1]", "result": "41 (53) no. (%)"}, {"measurement": "Treatment-related adverse event: Hyperphosphatemia, Grade 2", "setting": "[1]", "result": "8 (10) no. (%)"}, {"measurement": "Treatment-related adverse event: Hyperphosphatemia, Grade ≥3", "setting": "[1]", "result": "0 no. (%)"}, {"measurement": "Treatment-related adverse event: Lacrimation increased, Any grade", "setting": "[1]", "result": "12 (15) no. (%)"}, {"measurement": "Treatment-related adverse event: Lacrimation increased, Grade 1", "setting": "[1]", "result": "9 (12) no. (%)"}, {"measurement": "Treatment-related adverse event: Lacrimation increased, Grade 2", "setting": "[1]", "result": "3 (4) no. (%)"}, {"measurement": "Treatment-related adverse event: Lacrimation increased, Grade ≥3", "setting": "[1]", "result": "0 no. (%)"}, {"measurement": "Treatment-related adverse event: Nausea, Any grade", "setting": "[1]", "result": "6 (8) no. (%)"}, {"measurement": "Treatment-related adverse event: Nausea, Grade 1", "setting": "[1]", "result": "4 (5) no. (%)"}, {"measurement": "Treatment-related adverse event: Nausea, Grade 2", "setting": "[1]", "result": "2 (3) no. (%)"}, {"measurement": "Treatment-related adverse event: Nausea, Grade ≥3", "setting": "[1]", "result": "0 no. (%)"}, {"measurement": "Treatment-related adverse event: Onycholysis, Any grade", "setting": "[1]", "result": "13 (17) no. (%)"}, {"measurement": "Treatment-related adverse event: Onycholysis, Grade 1", "setting": "[1]", "result": "2 (3) no. (%)"}, {"measurement": "Treatment-related adverse event: Onycholysis, Grade 2", "setting": "[1]", "result": "6 (8) no. (%)"}, {"measurement": "Treatment-related adverse event: Onycholysis, Grade ≥3", "setting": "[1]", "result": "5 (6) no. (%)"}, {"measurement": "Treatment-related adverse event: Onychomadesis, Any grade", "setting": "[1]", "result": "8 (10) no. (%)"}, {"measurement": "Treatment-related adverse event: Onychomadesis, Grade 1", "setting": "[1]", "result": "2 (3) no. (%)"}, {"measurement": "Treatment-related adverse event: Onychomadesis, Grade 2", "setting": "[1]", "result": "6 (8) no. (%)"}, {"measurement": "Treatment-related adverse event: Onychomadesis, Grade ≥3", "setting": "[1]", "result": "0 no. (%)"}, {"measurement": "Treatment-related adverse event: Paronychia, Any grade", "setting": "[1]", "result": "11 (14) no. (%)"}, {"measurement": "Treatment-related adverse event: Paronychia, Grade 1", "setting": "[1]", "result": "1 (1) no. (%)"}, {"measurement": "Treatment-related adverse event: Paronychia, Grade 2", "setting": "[1]", "result": "10 (13) no. (%)"}, {"measurement": "Treatment-related adverse event: Paronychia, Grade ≥3", "setting": "[1]", "result": "0 no. (%)"}, {"measurement": "Treatment-related adverse event: Retinal detachment, Any grade", "setting": "[1]", "result": "8 (10) no. (%)"}, {"measurement": "Treatment-related adverse event: Retinal detachment, Grade 1", "setting": "[1]", "result": "5 (6) no. (%)"}, {"measurement": "Treatment-related adverse event: Retinal detachment, Grade 2", "setting": "[1]", "result": "3 (4) no. (%)"}, {"measurement": "Treatment-related adverse event: Retinal detachment, Grade ≥3", "setting": "[1]", "result": "0 no. (%)"}, {"measurement": "Treatment-related adverse event: Stomatitis, Any grade", "setting": "[1]", "result": "33 (42) no. (%)"}, {"measurement": "Treatment-related adverse event: Stomatitis, Grade 1", "setting": "[1]", "result": "13 (17) no. (%)"}, {"measurement": "Treatment-related adverse event: Stomatitis, Grade 2", "setting": "[1]", "result": "13 (17) no. (%)"}, {"measurement": "Treatment-related adverse event: Stomatitis, Grade ≥3", "setting": "[1]", "result": "7 (9) no. (%)"}, {"measurement": "Treatment-related adverse event: Vision blurred, Any grade", "setting": "[1]", "result": "5 (6) no. (%)"}, {"measurement": "Treatment-related adverse event: Vision blurred, Grade 1", "setting": "[1]", "result": "3 (4) no. (%)"}, {"measurement": "Treatment-related adverse event: Vision blurred, Grade 2", "setting": "[1]", "result": "1 (1) no. (%)"}, {"measurement": "Treatment-related adverse event: Vision blurred, Grade ≥3", "setting": "[1]", "result": "1 (1) no. (%)"}, {"measurement": "Treatment-related adverse event: Alopecia, Grade 3", "setting": "8 mg continuous (n = 99)", "result": 0, "unit": "no."}, {"measurement": "Treatment-related adverse event: Decreased appetite, Grade 3", "setting": "8 mg continuous (n = 99)", "result": 0, "unit": "no."}, {"measurement": "Treatment-related adverse event: Dry mouth, Grade 3", "setting": "8 mg continuous (n = 99)", "result": 0, "unit": "no."}, {"measurement": "Treatment-related adverse event: Dry skin, Grade 3", "setting": "8 mg continuous (n = 99)", "result": 0, "unit": "no."}, {"measurement": "Treatment-related adverse event: Lacrimation increased, Grade 3", "setting": "8 mg continuous (n = 99)", "result": 0, "unit": "no."}, {"measurement": "Treatment-related adverse event: Vision blurred, Grade 3", "setting": "8 mg continuous (n = 99)", "result": 0, "unit": "no."}, {"measurement": "Treatment-related adverse event: Weight decreased, Grade 3", "setting": "8 mg continuous (n = 99)", "result": 0, "unit": "no."}, {"measurement": "Treatment-related adverse event of special interest or clinical importance: Arrhythmia-related events, Any grade", "setting": "[2]", "result": 0, "unit": "no."}, {"measurement": "Treatment-related adverse event of special interest or clinical importance: Arrhythmia-related events, Grade ≥3", "setting": "[2]", "result": 0, "unit": "no."}, {"measurement": "Patients with Abdominal pain, Any grade", "setting": "[3]", "result": "8 (8) no. (%)"}, {"measurement": "Patients with Abdominal pain, Grade 1", "setting": "[3]", "result": "5 (5) no. (%)"}, {"measurement": "Patients with Abdominal pain, Grade 2", "setting": "[3]", "result": "2 (2) no. (%)"}, {"measurement": "Patients with Abdominal pain, Grade ≥3", "setting": "[3]", "result": "1 (1) no. (%)"}, {"measurement": "Patients with Alanine aminotransferase increased, Any grade", "setting": "[3]", "result": "17 (17) no. (%)"}]}]}
